The source of these data is PMC10093836, “Stabilization of the Dimeric State of SARS-CoV-2 Main Protease by GC376 and Nirmatrelvir” (International Journal of Molecular Sciences, 2023).

Molecules are shown by their SMILES. Bounds are passed on as bounds.

Experiment [1] relates to cells. Further details: method as in PMID 32841477. The conditions noted are these: literature values; cited from earlier work.
Experiment [2] has as its system Mpro. The note with it: read-out: IC50 for Mpro; literature data; cited from earlier work.
For experiment [3], the target named is SARS-CoV-2 Mpro (Nsp5, 3CLpro) (Severe acute respiratory syndrome coronavirus 2, UniProt P0DTD1). Nature of the experiment: biochemical. The experiment is classed as binding. The conditions noted are these: for Binding to Mpro (MST), in words: no binding curve produced.
Experiment [4] deals with SARS-CoV-2 protease. Further details: method as in PMID 34726479, PMID 35233052, PMID 34653812. The note with it: literature; read-out: Inhibition constant (Ki); cited from earlier work.

One may read the EC50 as the concentration at which the effect is half-maximal. The term IC50 denotes the point on the concentration scale where inhibition reaches its midpoint. For orientation: Kd means the equilibrium constant for the complex coming apart. The Ki is a dissociation constant, usually derived from enzyme kinetics or from competition with a known ligand.

For `CCCCCCNC(=O)n1cc(F)c(=O)[nH]c1=O` [Carmofur], the concentration giving a half-maximal response (EC50) in experiment [1] was 24 ± 3 µM. Take `CC(C)C[C@H](NC(=O)OCc1ccccc1)C(=O)N[C@@H](CC1CCNC1=O)C(O)S(=O)(=O)O` (stereo partly shown) [GC376]: the IC50 in experiment [2] is 0.19 ± 0.04 µM. As to `Cc1cccc(C)c1OCC(=O)N[C@@H](Cc1ccccc1)[C@@H](O)C[C@H](Cc1ccccc1)NC(=O)[C@H](C(C)C)N1CCCNC1=O` [Lopinavir], in experiment [3], the Kd was more than 200 µM and the “Binding to Mpro (MST), in words” value was “do not bind Mpro effectively”. On to `CC(C)(C)[C@H](NC(=O)C(F)(F)F)C(=O)N1C[C@H]2[C@@H]([C@H]1C(=O)N[C@H](C#N)C[C@@H]1CCNC1=O)C2(C)C` [NMV, Nirmatrelvir], for which the inhibition constant (Ki) in experiment [4] is 0.003 µM. As to `Cc1c(O)cccc1C(=O)N[C@@H](CSc1ccccc1)[C@H](O)CN1C[C@H]2CCCC[C@H]2C[C@H]1C(=O)NC(C)(C)C` [Nelfinavir], the “Binding to Mpro (MST), in words” value in experiment [3] is “do not bind Mpro effectively”.

As to `CC(C)c1nc(CN(C)C(=O)N[C@H](C(=O)N[C@@H](Cc2ccccc2)C[C@H](O)[C@H](Cc2ccccc2)NC(=O)OCc2cncs2)C(C)C)cs1` [RTV, ritonavir], in experiment [3], the “Binding to Mpro (MST), in words” value is “do not bind Mpro effectively”.
